Columns and labels:
heparanase = target: T1, heparanase (Pedobacter heparinus, UniProt Q59289); experiment: Heparanase assay: biotin-HS digestion with heparanase with or without excess unlabeled HS; type: biochemical, bacterial; settings: 50 fold (5 μg) excess of unlabeled HS
T1 construct: purchased Seikagaku
Method: Biotin-labeled HS from Example 1 was digested with heparanase, and the reaction containing undegraded and degraded HS was bound to in a biotin-binding plate (FIG. 1). Streptavidin, conjugated with an enzyme, was added to the binding plate. Quantitation of the color reaction measured the amount of available biotin binding sites. A decrease in color from a known amount reflects HS digestion by heparanase.
A lyophilized powder of heparanase (Heparanase III obtained from Seikagaku) containing 0.1 units of enzymatic activity was hydrated in 100 μl of Reaction Buffer (3.33 mM calcium acetate pH 7.0, containing 0.1 mg/ml BSA). This solution was then diluted to a working concentration of heparanase solution (0.01 micro-units to 1 milli-unit) in Reaction Buffer. Enzyme activity was defined by the manufacturer of the heparanase (Seikagaku) as follows: one unit of enzyme activity is defined as amount required to generate 1 μmole of hexuronic acid per minute. Biotin-HS was diluted to a desired concentration in Reaction Buffer.
To determine heparanase activity, 10 μl of heparanase solution was mixed with 200 μl of the biotin-HS substrate in a 96 well plate. The reaction was incubated at 43° C. for 1 hour. […] Color development in the wells was assessed by measuring the optical density at 450 nm in a microplate reader (Labsystems, Muliskan Ascent model). […]

biotin-HS = experiment: Digestion of biotin-HS by enzymes, detected with streptavidin-enzyme conjugate; type: biochemical; settings: protease in place of heparanase; FIG. 6

T1 sequence (Q59289 25-659): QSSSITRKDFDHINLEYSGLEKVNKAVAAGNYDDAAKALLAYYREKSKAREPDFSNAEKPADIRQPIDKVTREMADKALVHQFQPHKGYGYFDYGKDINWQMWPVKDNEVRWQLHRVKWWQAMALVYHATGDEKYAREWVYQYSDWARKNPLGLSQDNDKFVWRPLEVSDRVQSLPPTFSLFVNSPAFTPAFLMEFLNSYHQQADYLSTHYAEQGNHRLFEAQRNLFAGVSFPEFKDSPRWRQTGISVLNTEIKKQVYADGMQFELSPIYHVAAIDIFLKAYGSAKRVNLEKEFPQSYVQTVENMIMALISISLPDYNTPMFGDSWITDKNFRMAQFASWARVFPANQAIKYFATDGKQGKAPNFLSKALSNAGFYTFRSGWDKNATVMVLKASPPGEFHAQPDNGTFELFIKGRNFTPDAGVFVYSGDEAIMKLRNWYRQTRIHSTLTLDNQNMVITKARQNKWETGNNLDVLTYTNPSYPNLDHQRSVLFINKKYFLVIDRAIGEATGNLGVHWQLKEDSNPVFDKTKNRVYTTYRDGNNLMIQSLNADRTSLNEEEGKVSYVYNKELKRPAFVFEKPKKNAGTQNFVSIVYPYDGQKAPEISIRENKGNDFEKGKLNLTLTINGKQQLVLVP

| Substance | Inhibition of heparanase activity toward biotin-HS (heparanase) | Activity leading to a decrease in the amount of biotin-HS detected by the assay (biotin-HS) |
| --- | --- | --- |
| heparan sulfate [unlabeled HS] | approximately 60% |  |
| trypsin |  | Neither protease tested (MMP or trypsin) demonstrated any activity |
